For assay [1], the target named is T1, Ephrin type-A receptor 8 (Homo sapiens) (UniProt P29322).
T1 sequence (whole entry): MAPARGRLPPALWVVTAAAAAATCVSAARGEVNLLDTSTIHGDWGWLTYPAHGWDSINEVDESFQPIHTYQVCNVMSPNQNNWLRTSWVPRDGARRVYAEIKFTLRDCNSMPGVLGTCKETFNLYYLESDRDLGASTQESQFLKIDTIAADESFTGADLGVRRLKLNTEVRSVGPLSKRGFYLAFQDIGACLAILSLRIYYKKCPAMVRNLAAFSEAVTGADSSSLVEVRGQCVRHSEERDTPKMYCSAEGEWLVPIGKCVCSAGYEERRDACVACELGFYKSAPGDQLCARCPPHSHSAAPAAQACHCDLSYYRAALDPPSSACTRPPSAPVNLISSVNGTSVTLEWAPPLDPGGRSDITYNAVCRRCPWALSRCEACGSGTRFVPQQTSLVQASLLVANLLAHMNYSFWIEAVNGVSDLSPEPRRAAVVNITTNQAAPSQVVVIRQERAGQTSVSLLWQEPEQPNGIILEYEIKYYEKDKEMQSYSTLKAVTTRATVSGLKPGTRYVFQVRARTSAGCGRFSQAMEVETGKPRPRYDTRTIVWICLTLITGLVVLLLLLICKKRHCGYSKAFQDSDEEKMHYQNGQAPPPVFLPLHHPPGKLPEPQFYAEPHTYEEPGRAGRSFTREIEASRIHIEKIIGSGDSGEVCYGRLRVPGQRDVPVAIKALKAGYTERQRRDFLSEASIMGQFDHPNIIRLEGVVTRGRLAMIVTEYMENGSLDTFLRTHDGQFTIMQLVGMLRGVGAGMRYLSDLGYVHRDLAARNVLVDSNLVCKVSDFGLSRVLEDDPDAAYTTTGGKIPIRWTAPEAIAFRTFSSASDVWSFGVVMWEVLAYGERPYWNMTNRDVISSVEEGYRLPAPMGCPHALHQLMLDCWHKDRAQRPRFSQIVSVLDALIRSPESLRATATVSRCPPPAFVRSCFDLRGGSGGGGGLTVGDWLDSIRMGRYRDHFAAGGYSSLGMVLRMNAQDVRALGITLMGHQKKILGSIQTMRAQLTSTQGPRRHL
As to the kind of experiment: Selectivity interaction (Kinase panel (Invitrogen)) EUB0000639a EPHA8. The following applies: at 200 nM.

Assay [2] deals with T2, Dual specificity mitogen-activated protein kinase kinase 3 (Homo sapiens) (UniProt P46734).
T2 sequence (whole entry): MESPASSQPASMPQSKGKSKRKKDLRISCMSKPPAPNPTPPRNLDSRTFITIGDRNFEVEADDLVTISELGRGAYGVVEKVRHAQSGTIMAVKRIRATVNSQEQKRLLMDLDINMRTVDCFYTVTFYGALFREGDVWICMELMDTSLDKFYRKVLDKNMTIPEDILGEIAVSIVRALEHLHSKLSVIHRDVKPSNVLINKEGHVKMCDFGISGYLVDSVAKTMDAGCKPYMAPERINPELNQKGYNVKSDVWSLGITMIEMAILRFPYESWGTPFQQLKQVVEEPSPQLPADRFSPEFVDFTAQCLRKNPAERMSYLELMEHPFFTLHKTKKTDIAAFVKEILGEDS
Description: Selectivity interaction (Kinase panel (Invitrogen)) EUB0000639a MAP2K3. The following applies: at 200 nM.

Assay [3] deals with Mitogen-activated protein kinase 8 (Homo sapiens, UniProt P45983). As to the kind of experiment: Selectivity interaction (ActivX KiNativ screen (kinase selectivity in THP-1 cell lysates)) EUB0000639a MAPK8. The settings on record: lysate. In kind it is subcellular.
Chain of Mitogen-activated protein kinase 8 (P45983 whole entry): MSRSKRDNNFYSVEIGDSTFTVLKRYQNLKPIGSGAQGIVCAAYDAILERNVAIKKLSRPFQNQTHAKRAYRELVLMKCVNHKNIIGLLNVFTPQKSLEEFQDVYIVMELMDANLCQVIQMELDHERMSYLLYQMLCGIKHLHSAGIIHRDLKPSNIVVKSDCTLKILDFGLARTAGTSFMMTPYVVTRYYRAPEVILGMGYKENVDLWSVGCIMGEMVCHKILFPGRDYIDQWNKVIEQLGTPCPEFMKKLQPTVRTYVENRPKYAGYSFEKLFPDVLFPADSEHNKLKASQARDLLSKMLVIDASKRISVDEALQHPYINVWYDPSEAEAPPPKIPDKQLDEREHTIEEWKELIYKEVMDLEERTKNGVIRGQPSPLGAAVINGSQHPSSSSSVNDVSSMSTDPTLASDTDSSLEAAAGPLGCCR
Assay [4] deals with Dual specificity tyrosine-phosphorylation-regulated kinase 1B (Homo sapiens, UniProt Q9Y463). The settings on record: at 10 µM.
Chain of Dual specificity tyrosine-phosphorylation-regulated kinase 1B (Q9Y463 whole entry, looked up): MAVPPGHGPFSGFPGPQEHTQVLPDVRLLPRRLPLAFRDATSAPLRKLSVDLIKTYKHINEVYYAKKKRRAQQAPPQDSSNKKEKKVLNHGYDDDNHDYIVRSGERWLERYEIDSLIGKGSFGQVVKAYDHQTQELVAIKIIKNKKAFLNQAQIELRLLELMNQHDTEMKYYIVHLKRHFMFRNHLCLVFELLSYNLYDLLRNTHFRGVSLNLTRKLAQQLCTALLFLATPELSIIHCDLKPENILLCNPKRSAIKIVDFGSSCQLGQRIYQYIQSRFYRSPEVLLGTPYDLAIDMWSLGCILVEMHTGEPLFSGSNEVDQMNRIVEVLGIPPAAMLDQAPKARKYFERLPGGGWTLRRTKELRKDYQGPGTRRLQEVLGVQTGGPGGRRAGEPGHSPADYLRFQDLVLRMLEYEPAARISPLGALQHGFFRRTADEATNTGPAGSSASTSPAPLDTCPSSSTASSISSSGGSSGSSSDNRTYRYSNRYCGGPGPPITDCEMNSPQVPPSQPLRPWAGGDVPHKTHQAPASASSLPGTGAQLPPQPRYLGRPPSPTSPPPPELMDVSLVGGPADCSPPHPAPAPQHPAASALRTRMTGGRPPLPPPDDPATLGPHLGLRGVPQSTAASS
Assay [5] has as its target Tyrosine-protein kinase Fgr (Homo sapiens) (UniProt P09769). Description: Selectivity interaction (KinomeScan (DiscoverX)) EUB0001049a FGR. The following applies: at 1 µM.
The target in assay [6] is Tyrosine-protein kinase HCK (Homo sapiens) (UniProt P08631). Description: Selectivity interaction (KinomeScan (DiscoverX)) EUB0000092b HCK. The settings on record: at 10 µM.
Chain of Tyrosine-protein kinase HCK (Homo sapiens) (P08631 2-526 limits assumed): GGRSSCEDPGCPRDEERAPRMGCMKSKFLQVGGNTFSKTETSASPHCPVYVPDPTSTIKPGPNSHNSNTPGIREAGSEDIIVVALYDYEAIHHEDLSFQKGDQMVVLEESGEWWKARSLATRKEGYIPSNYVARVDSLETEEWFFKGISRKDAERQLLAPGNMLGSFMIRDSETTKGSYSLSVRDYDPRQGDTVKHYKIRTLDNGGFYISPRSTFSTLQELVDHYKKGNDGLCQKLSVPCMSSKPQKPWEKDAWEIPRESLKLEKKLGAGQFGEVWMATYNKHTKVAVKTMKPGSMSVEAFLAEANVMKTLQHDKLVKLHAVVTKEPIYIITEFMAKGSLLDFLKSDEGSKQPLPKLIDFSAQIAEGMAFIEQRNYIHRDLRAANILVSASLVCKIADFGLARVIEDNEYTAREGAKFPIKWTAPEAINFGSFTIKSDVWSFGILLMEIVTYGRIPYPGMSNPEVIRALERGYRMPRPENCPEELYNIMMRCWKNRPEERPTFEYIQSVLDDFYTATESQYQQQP
The target of assay [7] is T3, Protein kinase C epsilon type (Homo sapiens) (UniProt Q02156).
T3 sequence (whole entry): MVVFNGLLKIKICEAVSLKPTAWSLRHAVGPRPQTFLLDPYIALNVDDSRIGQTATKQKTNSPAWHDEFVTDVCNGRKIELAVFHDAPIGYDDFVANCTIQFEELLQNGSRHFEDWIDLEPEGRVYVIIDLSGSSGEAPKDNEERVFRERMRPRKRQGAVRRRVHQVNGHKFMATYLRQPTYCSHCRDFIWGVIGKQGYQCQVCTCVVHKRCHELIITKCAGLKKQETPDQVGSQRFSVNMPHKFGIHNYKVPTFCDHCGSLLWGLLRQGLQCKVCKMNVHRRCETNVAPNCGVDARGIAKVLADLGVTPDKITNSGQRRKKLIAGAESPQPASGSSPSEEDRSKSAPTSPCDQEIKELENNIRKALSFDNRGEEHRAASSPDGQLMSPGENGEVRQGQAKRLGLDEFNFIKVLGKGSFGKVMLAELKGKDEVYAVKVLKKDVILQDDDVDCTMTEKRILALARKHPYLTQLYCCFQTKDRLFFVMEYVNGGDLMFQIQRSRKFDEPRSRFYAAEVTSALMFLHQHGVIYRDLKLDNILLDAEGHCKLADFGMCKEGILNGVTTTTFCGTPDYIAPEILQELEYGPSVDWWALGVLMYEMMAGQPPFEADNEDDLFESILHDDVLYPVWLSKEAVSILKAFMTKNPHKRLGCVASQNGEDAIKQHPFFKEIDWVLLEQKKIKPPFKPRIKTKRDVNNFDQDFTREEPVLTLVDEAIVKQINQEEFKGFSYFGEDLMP
As to the kind of experiment: Selectivity interaction (KinomeScan (DiscoverX)) EUB0000045b PRKCE.

Chain of Tyrosine-protein kinase Fgr (Homo sapiens) (P09769 2-529 limits assumed): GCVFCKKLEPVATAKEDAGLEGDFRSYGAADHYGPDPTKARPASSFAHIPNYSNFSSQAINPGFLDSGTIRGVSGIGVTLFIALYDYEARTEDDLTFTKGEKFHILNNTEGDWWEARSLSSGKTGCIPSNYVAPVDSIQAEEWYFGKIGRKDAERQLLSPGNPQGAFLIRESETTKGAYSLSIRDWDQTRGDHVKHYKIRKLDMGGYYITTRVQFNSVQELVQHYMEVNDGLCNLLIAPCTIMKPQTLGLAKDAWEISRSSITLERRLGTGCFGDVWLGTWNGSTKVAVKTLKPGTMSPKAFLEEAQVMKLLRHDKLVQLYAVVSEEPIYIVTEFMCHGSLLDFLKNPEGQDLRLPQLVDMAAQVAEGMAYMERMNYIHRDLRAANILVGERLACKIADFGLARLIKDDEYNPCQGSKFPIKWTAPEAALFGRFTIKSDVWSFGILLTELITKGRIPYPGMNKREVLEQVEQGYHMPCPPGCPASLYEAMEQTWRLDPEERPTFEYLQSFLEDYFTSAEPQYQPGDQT

Regarding `CC[C@@H]1[C@H](F)C(=O)N[C@@H]1COc1nccc2cc(C(N)=O)c(OC)cc12` [ZIMLOVISERTIB], the % of inhibition in assay [1] is -0.726%; in assay [2] it was 0.853%; in assay [3] (at 0.01 µM), 13.3%; in assay [3] (at 0.04 µM), -1.4%; in assay [3] (at 0.2 µM), 1.6%; in assay [3] (at 1 µM), 27.7%. The % of inhibition in assay [3] (at 5 µM) was 57.5%.

In turn, `CCN(CC)CCCCNc1ncc2cc(-c3cc(OC)cc(OC)c3)c(NC(=O)NC(C)(C)C)nc2n1` came in with a % of control in assay [4] of 100%.

For the compound `COc1cc(Nc2nc(C)cc(-c3cnn4nc(OC)ccc34)n2)cc(C(F)(F)F)c1`, the % of control in assay [5] turned out to be 94%.

In assay [6], `CCC(=O)N1CCN(c2ccc(-n3c(=O)ccc4cnc5ccc(-c6cnc7ccccc7c6)cc5c43)cc2C(F)(F)F)CC1` returned a % of control of 77%.

In the case of `C=CC(=O)Nc1cc(-n2c(=O)ccc3cnc4ccc(-c5ccc(NS(C)(=O)=O)cc5)cc4c32)ccc1C`, the results for the % of control in assay [7] (at 1 µM) and in assay [7] (at 10 µM) were 100% and 75%, respectively.
